Test results: patent US10487056B2, “Small molecule androgen receptor inhibitors and methods of use thereof” (GEORGETOWN UNIVERSITY, priority 2015, dated 2019)

What was measured:
Assay type in all cases: cell-based
PrEC = test: Live and dead cell staining, PrEC cells; conditions: SH-I-125 5 μM, 3 days
Description: Live and dead cells were determined using a Cell Viability/Cytotoxicity Assay kit (Biotium Inc.; Hayward, Calif.).
To determine the effects of SH-I-125 on prostate cancer cell growth, 22Rv1 cells were treated with SH-I-125 and cell viability was measured after a period of 3 days. […]. In comparison, non-tumorigenic primary prostate epithelial cells (PrEC) retained 80% viability in the presence of a similar range of doses of SH-I-125, showing that tumorigenic cells are more susceptible to the growth inhibitory properties of SH-I-125 compared to non-tumorigenic cells (FIG. 8B). […] Staurosporine was used as a positive control for cell death induction in live and dead assays (FIG. 9C).

AR and AR-V7 = test: Quantitative RT-PCR of AR and AR-V7 mRNA in 22Rv1 cells; conditions: SH-I-125 1 μM, 1-3 days, normalized to GAPDH
Description: FIG. 12D is a graph showing the mRNA expression of AR and AR-V7 after treating 22Rv1 cells with SH-I-125 (1 μM) for 24 and 72 hrs. The AR and AR-V7 expression levels were assessed by qRTPCR and normalized to GAPDH expression levels.
Quantitative RT-PCR was performed using the protocol and the primers as described in Amin et al., Mol. Cancer Ther., 13:341-52 (2014).
To establish a mechanism by which SH-I-125 caused a decline in AR and AR-V7 levels, the relative expression of AR and AR-V7 in 22Rv1 cells that had been treated with SH-I-125 for a period of 1-3 days was measured. […] To determine whether proteasomal mechanisms are responsible for the decline in AR and AR-V7 levels, 22Rv1 cells were treated with 5 μM SH-I-125 for a period of 48 hours in the presence of proteasome inhibitor, MG132.

AR [1] = test: 22Rv1-MDVR-ARE-luc luciferase reporter assay; conditions: 22Rv1-MDVR-ARE-luc cells, range of doses, 24 hours
Description: […]. Luciferase activity was measured and plotted as a percentage of control. Data represent the mean of three independent experiments with quadruplicate samples; bars, SEM. ***, p value <0.001 determined by ANOVA.
VCaP-MDVR and 22Rv1-MDVR stably expressing ARE-luciferase construct (VCaP-MDVR-ARE-luc and 22Rv1-MDVR-ARE-luc) were generated as described above in the Materials and Methods section. […].

[2] = target: T1, AR NTD-Gal4DBD fusion protein (Homo sapiens, UniProt P10275); test: AR NTD-Gal4DBD / Gal4UAS-luciferase reporter in VCaP cells, forskolin-induced; conditions: forskolin 50 μM, 24 hours
T1 construct: expressed in transfected cells; host or cells: VCaP
T1 sequence (P10275 with tags, fused parts or gaps limits assumed): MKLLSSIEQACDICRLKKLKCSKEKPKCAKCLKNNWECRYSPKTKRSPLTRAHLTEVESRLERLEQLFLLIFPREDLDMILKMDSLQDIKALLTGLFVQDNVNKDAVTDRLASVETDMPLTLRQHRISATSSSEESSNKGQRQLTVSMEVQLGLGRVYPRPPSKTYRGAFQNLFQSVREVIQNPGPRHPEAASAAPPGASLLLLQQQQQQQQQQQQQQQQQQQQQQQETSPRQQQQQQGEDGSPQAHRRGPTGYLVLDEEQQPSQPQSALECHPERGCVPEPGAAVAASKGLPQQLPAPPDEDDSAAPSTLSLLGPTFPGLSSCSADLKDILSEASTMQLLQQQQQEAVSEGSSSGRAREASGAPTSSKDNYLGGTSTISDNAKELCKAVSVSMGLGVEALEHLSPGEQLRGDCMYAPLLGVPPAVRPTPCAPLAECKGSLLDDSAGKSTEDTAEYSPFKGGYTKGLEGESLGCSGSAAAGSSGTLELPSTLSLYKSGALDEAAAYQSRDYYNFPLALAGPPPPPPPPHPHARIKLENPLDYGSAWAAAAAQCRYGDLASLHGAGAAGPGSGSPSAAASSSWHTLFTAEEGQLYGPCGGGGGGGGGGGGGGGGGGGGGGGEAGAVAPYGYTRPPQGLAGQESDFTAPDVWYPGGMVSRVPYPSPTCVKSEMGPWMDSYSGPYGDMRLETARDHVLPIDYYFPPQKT
Description: VCaP cells were co-transfected with AR-NTD-Gal4DBD expression vector and Gal4UAS-TATA-luciferase reporter construct and optionally treated with forskolin (FSK) (50 μM) for 24 hours.
The N-terminal domain of the AR (AR NTD) is known to be its transactivation domain, essential for ligand-independent AR activation.

22Rv1-MDVR cells = test: Cell viability (MTT), 22Rv1-MDVR cells; conditions: MDV3100, ARN-509 10 μM, SH-I-125 range, 3 days
Description: (§1) Cell viability was measured using the MTT assay.
(§2) Cells were treated in the manner indicated below for the specified period of time.

AR [3] = test: 22Rv1-ARE-luc androgen-response element luciferase reporter assay; conditions: 24 hours
Description: VCaP and CWR22Rv1 (referred to as 22Rv1) cells were transduced with ARE-luciferase Cignal Lenti Pathway Reporter (Qiagen; Valencia, Calif.) and cultured as described above in the presence of 1 μg/mL puromycin. Following antibiotic selection, cells stably expressing ARE-luciferase were isolated, cloned and cultured to generate a stable ARE-reporter cell lines.

VCaP-MDVR cells = test: Cell viability (MTT), VCaP-MDVR cells; conditions: MDV3100, ARN-509 10 μM, SH-I-125 range, 3 days
Description: as §1, §2

[4] = tested on: VP16-Gal4DBD fusion protein; test: VP16-Gal4DBD / UAS-luc reporter, negative control; conditions: SH-I-125 1 μM, 24 hours
Description: 22Rv1 cells were co-transfected with VP16 activation domain-Gal4DBD fusion protein and Gal4UAS-TATA-luciferase reporter and treated with SH-I-125 (1 μM) for 24 hours. Luciferase activity was measured and normalized with Renilla luciferase. Columns, mean of three independent experiments with quadruplicate samples; bars, SEM.
The N-terminal domain of the AR (AR NTD) is known to be its transactivation domain, essential for ligand-independent AR activation. Mahanine is able to inhibit AR activation induced by ligand-independent mechanisms such as forskolin and interleukin-6, which activate the AR NTD. […] As a negative control, a constitutively active VP16-Gal4DBD fusion protein and the UAS-luc reporter were co-expressed in […]. […] […].

SMILES: COc1ccc2c(c1)[nH]c1c(C)c(OS(=O)(=O)c3cccc4ccccc34)ccc12 [SH-I-125, 7-methoxy-1-methyl-9H-carbazol-2-yl naphthalene-1-sulfonate]
- live and dead cell staining (PrEC): mostly unaffected
- AR and AR-V7 message (mRNA) levels (AR and AR-V7): did not affect the message levels
- luciferase activity (AR activity) (AR [1]): retained its inhibitory effect
- forskolin-induced AR activation (AR NTD-Gal4DBD luciferase) [2]: significantly inhibited forskolin-induced AR activation
- cell growth / viability (22Rv1-MDVR cells): effective in preventing the growth
- potency relative to mahanine on AR signaling (ARE-luc) (AR [3]): more potent than mahanine
- ARE-luciferase activity (AR [3]; range of doses): almost completely abolishing ARE-luciferase activity
- cell growth / viability (VCaP-MDVR cells): effective in preventing the growth
- VP16-Gal4DBD luciferase activity [4]: did not affect luciferase activity
